Article PMC12442245, “Activity Analysis of the P2X Receptor Antagonist PPADS against Signal Transducer and Activator of Transcription Proteins” (Chembiochem, 2025)

Biological target: T1, STAT5b (Homo sapiens, UniProt P51692)
T1 sequence (P51692 1-787): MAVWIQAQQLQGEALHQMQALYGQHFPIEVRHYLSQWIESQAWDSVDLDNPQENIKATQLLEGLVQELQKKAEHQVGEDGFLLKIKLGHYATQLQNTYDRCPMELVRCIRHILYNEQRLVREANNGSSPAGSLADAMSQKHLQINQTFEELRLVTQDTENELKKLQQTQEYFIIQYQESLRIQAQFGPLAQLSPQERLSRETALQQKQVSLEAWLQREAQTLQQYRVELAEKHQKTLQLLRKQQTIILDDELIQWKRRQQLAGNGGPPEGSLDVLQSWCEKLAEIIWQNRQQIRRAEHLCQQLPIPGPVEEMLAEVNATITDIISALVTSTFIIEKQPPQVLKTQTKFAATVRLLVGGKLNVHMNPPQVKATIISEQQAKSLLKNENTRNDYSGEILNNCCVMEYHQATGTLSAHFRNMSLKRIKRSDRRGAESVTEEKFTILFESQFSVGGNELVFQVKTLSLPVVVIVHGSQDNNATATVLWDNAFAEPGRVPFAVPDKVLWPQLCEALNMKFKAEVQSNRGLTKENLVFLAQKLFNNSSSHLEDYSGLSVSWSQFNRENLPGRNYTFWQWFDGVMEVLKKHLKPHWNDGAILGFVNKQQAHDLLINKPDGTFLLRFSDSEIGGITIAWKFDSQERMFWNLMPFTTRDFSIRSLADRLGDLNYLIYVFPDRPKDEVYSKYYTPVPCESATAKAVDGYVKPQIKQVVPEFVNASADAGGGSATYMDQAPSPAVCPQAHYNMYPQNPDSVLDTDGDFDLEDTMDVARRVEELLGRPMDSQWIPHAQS
Test: HTRF assay, STAT5b
Type: binding
Conditions: STAT5b 80 nM, without reducing agent, 1 h
Text: The azo dyes PPADS and iso‐PPADS have a deep red color in aqueous solution. […] In order to exclude this possibility, we established homogeneous time‐resolved fluorescence resonance energy transfer (HTRF) assays to confirm the degree of binding between STAT4, STAT5a, and STAT5b and the respective 5‐carboxyfluorescein‐labeled binding peptides used in the FP assay. In addition, an HTRF assay was established for STAT3, one of the STAT proteins targeted to a lesser extent in FP assays, as a specificity control (Figure 1B,C). The STAT protein constructs each contain a 6x‐His‐tag.^[ [15], [16], [17], [22] ^] A Tb^3+‐cryptate fused to an anti‐6x‐His antibody was chosen as the long‐lived fluorescent donor, while the carboxyfluorescein linked to the respective STAT‐binding peptides served as the acceptor (Figure 2A). Emission was measured with a time delay of 60 μs after excitation, allowing any initial compound fluorescence to decay beforehand. […]
Screening of chemical libraries comprising approximately 5000 known bioactive compounds in fluorescence polarization-based assays against phosphorylation-dependent protein-protein interaction domains, including STAT proteins, has been described.[1] […]
Fluorescence polarization assays
Competitive fluorescence polarization (FP) assays for STAT1,[2] […] Briefly, peptide binding to proteins was analyzed using the following carboxyfluorescein (CF) -labelled pepti des at a concentration of 10 nM: STAT1: 5-CF-GpYDKPHVL-OH, STAT3: 5-CF-GpYLPQTV -NH2, STAT4: 5-CF-GpYLPQNID-OH, STAT5a and STAT5b: 5-CF-GpYLVLDKW-OH, STAT6: 5- […]
CFGp[…]-OH. […] FP was measured using an Infinite F500 plate reader (Tecan) and measurements were converted into percent inhibition according to the binding curve equation. Curves were plotted and best fits calculated using OriginPro […]
Homogenous time-resolved fluorescence (HTRF) assays for STAT3, STAT4, STAT5a and STAT5b were carried out using Cisbio Monoclonal Antibody Anti-6His-Tb Gold as the fluorescence donor (Perkin Elmer) and the corresponding CF-labelled binding peptide as the acceptor. […] The average reading from 3 wells was obtained. […]

Row | SMILES | IC50 [µM]
1 | Cc1nc(/N=N/c2ccc(S(=O)(=O)O)cc2S(=O)(=O)O)c(COP(=O)(O)O)c(C=O)c1O [PPADS, pyridoxalphosphate‐6‐azophenyl‐2',4'‐disulfonic acid] | 1.22 ± 0.27
2 | Cc1nc(/N=N/c2cc(S(=O)(=O)O)ccc2S(=O)(=O)O)c(COP(=O)(O)O)c(C=O)c1O [iso‐PPADS] | 0.8 ± 0.1
